This note sets out measurements from ChEMBL document CHEMBL1909046, “DrugMatrix in vitro pharmacology data”.

In one data set the target is D(1A) dopamine receptor (Homo sapiens, UniProt P21728). The data set is described as follows: DRUGMATRIX: Dopamine D1 radioligand binding (ligand: [3H] SCH-23390). Conditions: cho; Not Active = under 50% inhibition at 10 µM. The format is cell membranes, CHO, Membrane.
Data set [1] deals with Beta-2 adrenergic receptor (Homo sapiens, UniProt P07550). The data set is described as follows: DRUGMATRIX: Adrenergic beta2 radioligand binding (ligand: [3H] CGP-12177). It counts as cell membranes, CHO, Membrane. The following applies: cho; Not Active = under 50% inhibition at 10 µM.
Data set [2] addresses T1, Polyunsaturated fatty acid lipoxygenase ALOX15 (Oryctolagus cuniculus, UniProt P12530).
T1 sequence (P12530 whole entry): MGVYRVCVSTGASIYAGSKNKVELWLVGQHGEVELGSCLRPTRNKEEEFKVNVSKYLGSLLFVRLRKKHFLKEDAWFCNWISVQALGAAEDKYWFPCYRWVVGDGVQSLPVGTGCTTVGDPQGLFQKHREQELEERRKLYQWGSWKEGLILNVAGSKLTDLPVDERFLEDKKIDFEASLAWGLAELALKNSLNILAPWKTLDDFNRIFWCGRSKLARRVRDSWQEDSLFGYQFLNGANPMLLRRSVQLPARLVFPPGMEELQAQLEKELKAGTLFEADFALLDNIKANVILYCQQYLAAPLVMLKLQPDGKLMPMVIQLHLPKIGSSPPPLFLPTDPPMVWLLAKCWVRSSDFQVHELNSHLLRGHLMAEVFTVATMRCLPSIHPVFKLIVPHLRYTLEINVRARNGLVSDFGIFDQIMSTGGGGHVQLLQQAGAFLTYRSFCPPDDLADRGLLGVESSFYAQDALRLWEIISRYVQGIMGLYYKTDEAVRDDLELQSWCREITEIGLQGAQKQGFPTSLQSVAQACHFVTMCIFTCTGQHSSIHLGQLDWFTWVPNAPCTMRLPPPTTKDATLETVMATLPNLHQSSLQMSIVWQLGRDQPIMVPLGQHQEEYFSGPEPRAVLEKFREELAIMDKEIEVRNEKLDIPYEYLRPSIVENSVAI
The data set is described as follows: biochemical. It counts as tissue-based, Reticulocytes. The following applies: reticulocytes.

The target of data set [3] is T2, Alpha-2C adrenergic receptor (Homo sapiens, UniProt P18825).
T2 sequence (P18825 whole entry): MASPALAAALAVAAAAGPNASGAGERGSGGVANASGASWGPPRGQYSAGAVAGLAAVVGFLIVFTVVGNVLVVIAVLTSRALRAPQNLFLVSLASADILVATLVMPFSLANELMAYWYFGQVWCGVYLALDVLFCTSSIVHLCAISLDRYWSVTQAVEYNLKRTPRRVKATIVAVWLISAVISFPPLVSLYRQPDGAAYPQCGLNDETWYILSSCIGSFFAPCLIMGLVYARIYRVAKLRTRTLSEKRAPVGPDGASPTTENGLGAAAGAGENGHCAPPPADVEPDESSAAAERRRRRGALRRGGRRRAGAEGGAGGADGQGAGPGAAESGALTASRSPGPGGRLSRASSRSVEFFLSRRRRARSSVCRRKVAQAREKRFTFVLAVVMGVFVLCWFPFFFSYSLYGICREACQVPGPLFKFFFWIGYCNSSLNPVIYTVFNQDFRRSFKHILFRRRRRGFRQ
The data set is described as follows: DRUGMATRIX: Adrenergic Alpha-2C radioligand binding (ligand: [3H] MK-912). It counts as cell membranes, Sf9, Membrane. Conditions: for IC50 / Ki: sf9.

Data set [4] concerns the target Protein phosphatase 3 catalytic subunit alpha (Homo sapiens, UniProt Q08209). On the set-up: species or system Escherichia coli.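 Further: inhibition of calcineurin (PP2B) enzyme activity, measured with DiFMUP as the substrate; in other assays of this panel Not Active means under 50% inhibition at 10 µM.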
The next data set addresses Cytochrome P450 2E1 (Homo sapiens, UniProt P05181). The following applies: bti-tn-5b1-4.

pIC50, pKi: −log10 of the molar value.

Sequence of D(1A) dopamine receptor (P21728 whole entry): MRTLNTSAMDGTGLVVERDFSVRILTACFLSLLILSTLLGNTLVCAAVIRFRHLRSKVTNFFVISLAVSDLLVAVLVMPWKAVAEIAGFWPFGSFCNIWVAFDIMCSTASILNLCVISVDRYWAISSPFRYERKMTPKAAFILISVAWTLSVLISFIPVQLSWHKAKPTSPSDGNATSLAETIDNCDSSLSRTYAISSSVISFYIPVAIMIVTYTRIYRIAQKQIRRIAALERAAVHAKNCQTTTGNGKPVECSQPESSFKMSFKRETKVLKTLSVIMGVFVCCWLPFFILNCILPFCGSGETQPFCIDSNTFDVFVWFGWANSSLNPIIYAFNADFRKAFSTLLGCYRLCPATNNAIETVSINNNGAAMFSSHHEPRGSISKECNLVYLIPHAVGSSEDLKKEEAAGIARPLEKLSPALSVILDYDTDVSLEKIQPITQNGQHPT
Sequence of Cytochrome P450 2E1 (P05181 whole entry): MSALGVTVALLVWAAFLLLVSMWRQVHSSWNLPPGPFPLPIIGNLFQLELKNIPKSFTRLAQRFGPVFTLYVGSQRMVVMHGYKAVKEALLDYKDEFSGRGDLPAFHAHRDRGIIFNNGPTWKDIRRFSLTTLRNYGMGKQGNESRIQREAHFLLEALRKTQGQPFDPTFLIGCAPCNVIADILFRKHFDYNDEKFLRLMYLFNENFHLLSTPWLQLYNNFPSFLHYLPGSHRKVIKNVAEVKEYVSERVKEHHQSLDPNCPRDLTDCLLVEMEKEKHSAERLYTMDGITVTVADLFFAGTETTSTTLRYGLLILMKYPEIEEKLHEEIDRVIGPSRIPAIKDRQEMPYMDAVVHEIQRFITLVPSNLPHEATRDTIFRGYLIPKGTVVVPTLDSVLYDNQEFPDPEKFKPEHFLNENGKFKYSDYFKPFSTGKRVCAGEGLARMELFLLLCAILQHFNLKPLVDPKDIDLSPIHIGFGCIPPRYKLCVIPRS

Take `COc1ccc2c(c1OC)C(=O)O[C@@H]2[C@H]1c2c(cc3c(c2OC)OCO3)CCN1C` [NOSCAPINE]: the IC50 result (on D(1A) dopamine receptor; in data set [1]; in data set [2]; in data set [3]; in data set [4]; on Cytochrome P450 2E1) was “Not Active” each time. In addition, the Ki result at Cytochrome P450 2E1 is recorded as “Not Active”.

For the compound `C[C@@H]1O[C@@H](O[C@H]2C[C@@H](O)[C@]3(CO)[C@H]4[C@H](O)C[C@]5(C)[C@@H](C6=CC(=O)OC6)CC[C@]5(O)[C@@H]4CC[C@]3(O)C2)[C@H](O)[C@H](O)[C@H]1O` [OUABAIN], the IC50 result (at D(1A) dopamine receptor; in data set [1]; in data set [2]; in data set [3]; in data set [4]; against Cytochrome P450 2E1) was “Not Active” each time. Also, the Ki result on Cytochrome P450 2E1 is listed as “Not Active”.

In the case of `NC(=O)N1c2ccccc2CC(=O)c2ccccc21` [OXCARBAZEPINE], the IC50 result (on D(1A) dopamine receptor; in data set [1]; in data set [2]; in data set [3]; in data set [4]; against Cytochrome P450 2E1) was “Not Active” in each case. The Ki result on Cytochrome P450 2E1 is listed as “Not Active”.

As to `COc1ccnc(C[S+]([O-])c2nc3ccc(OC(F)F)cc3[nH]2)c1OC` (stereo unspecified) [PANTOPRAZOLE], the IC50 entry (at D(1A) dopamine receptor; in data set [1]; in data set [2]; in data set [3]; in data set [4]; against Cytochrome P450 2E1) was “Not Active” in each case. The Ki result at Cytochrome P450 2E1 is listed as “Not Active”.

Regarding `N=C(N)c1ccc(OCCCCCOc2ccc(C(=N)N)cc2)cc1` [PENTAMIDINE], the IC50 entry (on D(1A) dopamine receptor; in data set [1]; in data set [2]; in data set [3]; in data set [4]; against Cytochrome P450 2E1) was “Not Active” throughout. Moreover, at Cytochrome P450 2E1, the Ki result is “Not Active”.

For `NNCCc1ccccc1` [PHENELZINE], the IC50 result (at D(1A) dopamine receptor; in data set [1]; in data set [2]; in data set [3]; in data set [4]; at Cytochrome P450 2E1) was “Not Active” in each case. Moreover, the Ki entry on Cytochrome P450 2E1 is listed as “Not Active”.

On to `CCc1ccc(CCOc2ccc(CC3SC(=O)NC3=O)cc2)nc1` (stereo unspecified) [PIOGLITAZONE], for which the IC50 entry (at D(1A) dopamine receptor; in data set [1]; in data set [2]; in data set [3]; in data set [4]; against Cytochrome P450 2E1) was “Not Active” each time. The Ki entry at Cytochrome P450 2E1 is on record as “Not Active”.

`CCCNC(C)C(=O)Nc1ccccc1C` (stereo unspecified) [PRILOCAINE]: the IC50 result (on D(1A) dopamine receptor; in data set [1]; in data set [2]; in data set [3]; in data set [4]; against Cytochrome P450 2E1) was “Not Active” in each case. Moreover, the Ki entry at Cytochrome P450 2E1 is on record as “Not Active”.

Consider `CCN(CC)CCNC(=O)c1ccc(N)cc1` [PROCAINAMIDE], for which the IC50 result (at D(1A) dopamine receptor; in data set [1]; in data set [2]; in data set [3]; in data set [4]; at Cytochrome P450 2E1) was “Not Active” each time. In addition, the Ki entry on Cytochrome P450 2E1 was “Not Active”.

Consider `CCN(CC)CCCC(C)Nc1c2ccc(Cl)cc2nc2ccc(OC)cc12` (stereo unspecified) [QUINACRINE], for which the IC50 result (on D(1A) dopamine receptor; in data set [1]; in data set [2]; in data set [4]; on Cytochrome P450 2E1) was “Not Active” in each case. The pIC50 – broadly, the IC50 on a negative log10 scale, so that one unit is a factor of ten – in data set [3] (read-out: IC50) is 5.41. The pKi (as a rule, −log10 of the Ki, conventionally taken in molar units) in data set [3] (read-out: Ki) is 6.25. For the same compound, the Ki result at Cytochrome P450 2E1 is listed as “Not Active”.

As to `C[C@]12C=CC(=O)C=C1CC[C@H]1[C@@H]3C[C@@H](O)[C@](O)(C(=O)CO)[C@@]3(C)C[C@H](O)[C@@]12F` [TRIAMCINOLONE], the IC50 result (at D(1A) dopamine receptor; in data set [1]; in data set [2]; in data set [3]; in data set [4]; against Cytochrome P450 2E1) was “Not Active” each time. In addition, at Cytochrome P450 2E1, the Ki result is “Not Active”.

As for `CC[C@]1(O)C[C@@H]2CN(CCc3c([nH]c4ccccc34)[C@@](C(=O)OC)(c3cc4c(cc3OC)N(C)[C@H]3[C@@](O)(C(N)=O)[C@H](O)[C@]5(CC)C=CCN6CC[C@]43[C@@H]65)C2)C1` [VINDESINE], the IC50 entry (at D(1A) dopamine receptor; in data set [1]; in data set [2]; in data set [3]; in data set [4]; at Cytochrome P450 2E1) was “Not Active” throughout. The Ki result at Cytochrome P450 2E1 was “Not Active”.

For the compound `CCN(C(C)=O)c1cccc(-c2ccnc3c(C#N)cnn23)c1` [ZALEPLON], the IC50 entry (on D(1A) dopamine receptor; in data set [1]; in data set [2]; in data set [3]; in data set [4]; against Cytochrome P450 2E1) was “Not Active” throughout. Also, the Ki result on Cytochrome P450 2E1 was “Not Active”.

As for COBALTOUS CHLORIDE, the IC50 entry (at D(1A) dopamine receptor; in data set [1]; in data set [2]; in data set [3]; in data set [4]; against Cytochrome P450 2E1) was “Not Active” in each case. Besides, the Ki entry (on D(1A) dopamine receptor; in data set [1]; in data set [2]; in data set [3]; in data set [4]; on Cytochrome P450 2E1) was “Not Active” in each case.

Turning to COLISTIN, the IC50 result (at D(1A) dopamine receptor; in data set [1]; in data set [2]; in data set [3]; in data set [4]; against Cytochrome P450 2E1) was “Not Active” each time. The Ki result (at D(1A) dopamine receptor; in data set [1]; in data set [2]; in data set [3]; in data set [4]; at Cytochrome P450 2E1) was “Not Active” each time.
